Results: patent US7084275B2, “Stereospecific enrichment of heterocyclic enantiomers” (R. T. Alamo Ventures I, LLC, priority 2001, dated 2006)

Assays:
[1] = tested on: PDE1 partially purified from bovine heart; test: PDE1 biochemical enzyme assay ([3H]cAMP hydrolysis); details: 100 μM test substance; 1.0 μM [3H]cAMP, calmodulin, Tris pH 7.5, 20 min, 30° C.
From the text: (§1) In this example, racemic flosequinan, (R)-(+)-flosequinan, and (S)-(−)-flosequinan were subjected to biochemical enzyme assays to determine their respective percent inhibition of a variety of phosphodiesterases (PDE1-PDE6). The (R)-(+)-flosequinan and (S)-(−)-flosequinan used in this example was resolved by high-performance liquid chromatography (HPLC) as follows. A 5.0 g sample of a racemic mixture of flosequinan was resolved over a 10 cm ID×50 cm L CHIRALCEL OD HPLC column (Chiral Technologies, Exton, Pa.) at 25° C. and with a flow rate of 1.0 ml/minute such that the column pressure was 37 bar. The mobile phase employed was 100% methanol and the detection of the mixture was performed at 270 nm. […] A total of 2.1 g of the (−) enantiomer having an optical purity greater than 99% was produced. A total of 2.3 g of the (+) enantiomer having an optical purity greater than 99% was produced.
(§2) PDE1: PDE1 partially purified from bovine heart was used. A racemic mixture of flosequinan, and each enantiomer of flosequinan, all at a molar concentration of 100 μM, were independently incubated with 13 μg PDE1 enzyme, 1.0 μM [^3H]cAMP and Cal2/calmodulin in Tris buffer pH 7.5 for 20 minutes at 30° C. The reaction was terminated by boiling for 2 minutes, and the resulting AMP was converted to adenosine by addition of 10 mg/ml snake venom nucleotidase and further incubation at 30° C. for 10 minutes. Unhydrolyzed cAMP was bound to AGI-X2 resin, and the remaining [^3H]adenosine in the aqueous phase was quantitated by scintillation counting.

[2] = target: T1, PDE2 partially purified from human platelets (Homo sapiens, UniProt O00408); test: PDE2 biochemical enzyme assay ([3H]cAMP hydrolysis); details: 100 μM test substance; 25 μM cAMP, Tris pH 7.5, 20 min, 30° C.
T1 construct: PDE2 partially purified from human platelets was used; from tissue; host or cells: human platelets
T1 sequence (O00408 whole entry): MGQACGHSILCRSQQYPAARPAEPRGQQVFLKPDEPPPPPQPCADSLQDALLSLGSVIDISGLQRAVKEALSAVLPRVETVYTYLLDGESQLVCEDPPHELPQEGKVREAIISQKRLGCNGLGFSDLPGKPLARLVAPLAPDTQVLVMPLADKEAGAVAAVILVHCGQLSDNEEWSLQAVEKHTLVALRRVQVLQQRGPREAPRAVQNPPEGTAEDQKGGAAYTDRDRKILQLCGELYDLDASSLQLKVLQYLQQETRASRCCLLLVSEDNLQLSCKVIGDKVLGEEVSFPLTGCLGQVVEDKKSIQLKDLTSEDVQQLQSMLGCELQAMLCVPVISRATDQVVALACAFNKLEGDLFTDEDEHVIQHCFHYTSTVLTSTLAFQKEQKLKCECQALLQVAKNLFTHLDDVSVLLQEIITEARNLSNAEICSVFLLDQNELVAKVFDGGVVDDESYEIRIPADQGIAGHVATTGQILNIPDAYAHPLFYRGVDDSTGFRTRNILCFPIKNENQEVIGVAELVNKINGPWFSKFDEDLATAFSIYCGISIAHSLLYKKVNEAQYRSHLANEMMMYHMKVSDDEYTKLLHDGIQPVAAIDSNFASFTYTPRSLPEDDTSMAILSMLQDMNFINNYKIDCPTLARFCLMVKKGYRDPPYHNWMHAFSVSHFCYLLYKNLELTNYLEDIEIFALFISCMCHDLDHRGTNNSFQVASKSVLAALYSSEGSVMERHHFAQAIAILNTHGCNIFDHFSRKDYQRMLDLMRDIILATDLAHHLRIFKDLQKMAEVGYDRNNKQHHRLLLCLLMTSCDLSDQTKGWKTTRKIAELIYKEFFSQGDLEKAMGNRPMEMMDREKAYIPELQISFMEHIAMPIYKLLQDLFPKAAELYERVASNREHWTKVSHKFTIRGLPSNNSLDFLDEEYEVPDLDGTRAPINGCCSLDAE
From the text: as §1
as §2, with “PDE2: PDE2” for “PDE1: PDE1”, “human platelets” for “bovine heart”, “23” for “13”, “PDE2” for “PDE1”, “25 μM cAMP containing 0.05” for “1.0”, “[^3H]cAMP” for “[^3H]cAMP and Cal2/calmodulin”

[3] = tested on: PDE4 partially purified from human U-937 pronocytic cells; test: PDE4 biochemical enzyme assay ([3H]cAMP hydrolysis); details: 100 μM test substance; 1 μM cAMP, Tris pH 7.5, 20 min, 30° C.
From the text: as §1
as §2, with “PDE4: PDE4” for “PDE1: PDE1”, “human U-937 pronocytic cells” for “bovine heart”, “20” for “13”, “PDE4 enzyme and 1 μM cAMP containing 0.01” for “PDE1 enzyme, 1.0”, “[^3H]cAMP” for “[^3H]cAMP and Cal2/calmodulin”

[4] = target: T2, PDE5 partially purified from human platelets (Homo sapiens, UniProt O76074); test: PDE5 biochemical enzyme assay ([3H]cGMP hydrolysis); details: 100 μM test substance; 1 μM cGMP, Tris pH 7.5, 20 min, 30° C.
T2 construct: PDE5 partially purified from human platelets was used; from tissue; host or cells: human platelets
From the text: as §1
PDE5: PDE5 partially purified from human platelets was used. A racemic mixture of flosequinan, and each enantiomer of flosequinan, all at a molar concentration of 100 μM, were independently incubated with 120 μg PDE5 enzyme and 1 μM cGMP containing 0.01 μM [^3H]cGMP in Tris buffer pH 7.5 for 20 minutes at 30° C. The reaction was terminated by boiling for 2 minutes, and the resulting GMP was converted to guanosine by addition of 10 mg/ml snake venom nucleotidase and further incubation at 30° C. for 10 minutes. Unhydrolyzed cGMP was bound to AGI-X2 resin, and the remaining [^3H]guanosine in the aqueous phase was quantitated by scintillation counting.

[5] = target: T3, PDE3 partially purified from human platelets (Homo sapiens, UniProt Q14432); test: PDE3 biochemical enzyme assay ([3H]cAMP hydrolysis); details: 100 μM test substance; 1 μM cAMP, Tris pH 7.5, 20 min, 30° C.
T3 construct: PDE3 partially purified from human platelets was used; from tissue; host or cells: human platelets
T3 sequence (Q14432 whole entry): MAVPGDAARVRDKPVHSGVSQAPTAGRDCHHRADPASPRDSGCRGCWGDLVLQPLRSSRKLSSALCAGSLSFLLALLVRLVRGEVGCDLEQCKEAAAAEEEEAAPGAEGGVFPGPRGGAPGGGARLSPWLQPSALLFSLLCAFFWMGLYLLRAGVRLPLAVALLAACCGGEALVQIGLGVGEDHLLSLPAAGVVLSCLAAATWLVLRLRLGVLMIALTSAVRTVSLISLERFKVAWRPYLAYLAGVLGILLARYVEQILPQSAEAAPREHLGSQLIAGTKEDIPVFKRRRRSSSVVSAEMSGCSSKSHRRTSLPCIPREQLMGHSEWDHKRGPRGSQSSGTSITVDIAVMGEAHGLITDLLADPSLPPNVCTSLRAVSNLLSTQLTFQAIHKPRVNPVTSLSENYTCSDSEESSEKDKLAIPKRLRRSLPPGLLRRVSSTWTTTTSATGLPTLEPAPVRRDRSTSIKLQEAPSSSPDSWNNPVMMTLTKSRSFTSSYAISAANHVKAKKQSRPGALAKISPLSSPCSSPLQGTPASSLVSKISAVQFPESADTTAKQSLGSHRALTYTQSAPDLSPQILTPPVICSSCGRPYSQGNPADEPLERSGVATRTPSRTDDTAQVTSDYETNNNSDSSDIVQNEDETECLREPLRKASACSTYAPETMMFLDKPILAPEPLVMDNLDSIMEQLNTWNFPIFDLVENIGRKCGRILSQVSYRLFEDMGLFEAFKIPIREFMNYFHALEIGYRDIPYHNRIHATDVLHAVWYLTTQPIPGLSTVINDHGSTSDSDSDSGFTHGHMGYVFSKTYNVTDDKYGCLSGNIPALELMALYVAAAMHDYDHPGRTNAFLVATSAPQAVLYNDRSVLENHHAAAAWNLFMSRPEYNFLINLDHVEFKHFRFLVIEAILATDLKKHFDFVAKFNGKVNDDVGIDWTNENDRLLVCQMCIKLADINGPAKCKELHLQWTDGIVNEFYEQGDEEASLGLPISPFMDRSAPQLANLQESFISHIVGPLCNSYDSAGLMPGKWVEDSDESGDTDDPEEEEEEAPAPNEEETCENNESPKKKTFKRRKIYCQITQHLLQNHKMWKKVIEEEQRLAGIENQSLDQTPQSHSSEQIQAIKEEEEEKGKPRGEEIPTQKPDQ
From the text: as §1
PDE3: PDE3 partially purified from human platelets was used. A racemic mixture of flosequinan, and each enantiomer of flosequinan, all at a molar concentration of 100 μM, were independently incubated with 13 μg PDE3 enzyme and 1 μM cAMP containing 0.01 μM [^3H]cAMP in Tris buffer pH 7.5 for 20 minutes at 30° C. […] Unhydrolyzed cAMP was bound to AGI-X2 resin, and the remaining [^3H]adenosine in the aqueous phase was quantitated by scintillation counting.

[6] = target: T4, PDE6 partially purified from bovine retinal rod and activated by trypsin (Bos taurus, UniProt P11541+P23439); test: PDE6 biochemical enzyme assay ([3H]cGMP hydrolysis); details: 100 μM test substance; 100 μM cGMP, Tris pH 7.5, 20 min, 30° C.
T4 construct: from tissue; host or cells: bovine retinal rod
T4 sequence (P11541 2-856 limits assumed): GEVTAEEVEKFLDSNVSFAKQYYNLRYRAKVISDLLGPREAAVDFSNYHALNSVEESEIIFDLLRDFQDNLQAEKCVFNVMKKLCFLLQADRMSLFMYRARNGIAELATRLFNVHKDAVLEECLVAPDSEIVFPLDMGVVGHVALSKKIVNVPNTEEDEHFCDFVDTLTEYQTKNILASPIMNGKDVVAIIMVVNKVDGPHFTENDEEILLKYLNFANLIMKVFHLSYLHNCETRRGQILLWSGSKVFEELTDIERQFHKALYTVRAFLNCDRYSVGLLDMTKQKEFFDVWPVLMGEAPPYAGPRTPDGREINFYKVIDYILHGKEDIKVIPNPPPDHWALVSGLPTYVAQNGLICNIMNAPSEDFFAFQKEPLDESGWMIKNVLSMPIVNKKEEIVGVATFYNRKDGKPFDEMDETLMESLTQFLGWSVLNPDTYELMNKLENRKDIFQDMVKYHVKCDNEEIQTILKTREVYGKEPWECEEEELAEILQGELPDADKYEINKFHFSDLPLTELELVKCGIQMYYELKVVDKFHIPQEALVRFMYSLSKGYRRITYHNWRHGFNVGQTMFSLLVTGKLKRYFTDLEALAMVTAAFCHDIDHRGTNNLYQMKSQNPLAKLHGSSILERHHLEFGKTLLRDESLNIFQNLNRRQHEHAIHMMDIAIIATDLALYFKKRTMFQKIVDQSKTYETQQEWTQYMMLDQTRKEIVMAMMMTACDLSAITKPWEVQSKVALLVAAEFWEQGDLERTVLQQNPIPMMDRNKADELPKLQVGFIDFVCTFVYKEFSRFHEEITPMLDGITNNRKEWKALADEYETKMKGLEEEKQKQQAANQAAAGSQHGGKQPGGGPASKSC
T4 sequence (P23439 2-850 limits assumed): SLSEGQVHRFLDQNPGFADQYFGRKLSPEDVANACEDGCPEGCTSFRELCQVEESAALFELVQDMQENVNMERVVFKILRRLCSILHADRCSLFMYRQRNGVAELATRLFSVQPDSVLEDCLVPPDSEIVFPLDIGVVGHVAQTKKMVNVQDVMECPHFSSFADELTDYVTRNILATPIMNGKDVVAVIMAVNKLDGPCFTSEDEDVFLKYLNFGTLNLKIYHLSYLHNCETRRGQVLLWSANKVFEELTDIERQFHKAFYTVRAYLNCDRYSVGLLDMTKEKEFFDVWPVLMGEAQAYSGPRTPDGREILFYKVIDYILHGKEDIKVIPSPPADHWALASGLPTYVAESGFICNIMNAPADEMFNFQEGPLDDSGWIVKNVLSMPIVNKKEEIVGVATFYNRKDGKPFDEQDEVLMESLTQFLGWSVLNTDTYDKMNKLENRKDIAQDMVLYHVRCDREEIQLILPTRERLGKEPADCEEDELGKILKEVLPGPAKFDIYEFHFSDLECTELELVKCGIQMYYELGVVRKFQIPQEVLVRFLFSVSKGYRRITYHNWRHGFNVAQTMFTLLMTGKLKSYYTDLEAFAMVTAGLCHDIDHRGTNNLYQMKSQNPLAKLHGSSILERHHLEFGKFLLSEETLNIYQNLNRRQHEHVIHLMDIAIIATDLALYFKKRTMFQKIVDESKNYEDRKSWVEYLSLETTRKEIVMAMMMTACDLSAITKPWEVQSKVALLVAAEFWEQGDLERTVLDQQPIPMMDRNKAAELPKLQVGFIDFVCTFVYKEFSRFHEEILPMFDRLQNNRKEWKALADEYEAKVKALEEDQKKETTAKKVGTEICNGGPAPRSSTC
From the text: as §1
PDE6: PDE6 partially purified from bovine retinal rod and activated by trypsin was used. A racemic mixture of flosequinan, and each enantiomer of flosequinan, all at a molar concentration of 100 μM, were independently incubated with 0.2 μg/ml active PDE6 and 100 μM cGMP containing 0.1 μM [^3H]cGMP in Tris buffer pH 7.5 for 20 minutes at 30° C. […] Unhydrolyzed cGMP was bound to AGI-X2 resin, and [^3H]guanosine remaining in the aqueous phase was quantitated by scintillation counting.

| Structure (SMILES) | % Inhibition of PDE1 [1] [%] | inhibition at 100 µM [2] [%] | % Inhibition of PDE4 [3] [%] | inhibition at 100 µM [4] [%] | inhibition at 100 µM [5] [%] | % Inhibition of PDE6 [6] [%] |
| --- | --- | --- | --- | --- | --- | --- |
| Cn1cc([S+](C)[O-])c(=O)c2ccc(F)cc21 (racemic) [racemic mixture of flosequinan, 7-fluoro-1-methyl-3-methylsulfinyl-4-quinolone, reference compound] | 31 | 18 | 24 | 11 | – | – |
| Cn1cc([S@@+](C)[O-])c(=O)c2ccc(F)cc21 [(+)-flosequinan, (R)-(+)-7-fluoro-1-methyl-3-methylsulfinyl-4-quinolone] | 28 | 18 | 6 | 17 | 32 | 22 |
| Cn1cc([S@+](C)[O-])c(=O)c2ccc(F)cc21 [(−)-flosequinan, (S)-(−)-7-fluoro-1-methyl-3-methylsulfinyl-4-quinolone] | 11 | 13 | 1 | 10 | 5 | – |
